Results published in ChEMBL document CHEMBL3616451, “Design and synthesis of 11α-substituted bile acid derivatives as potential anti-tuberculosis agents” (Bioorg Med Chem Lett, 2015).
Values after ≈ are worked out from the molar mass of the structure shown. Active and inactive are the calls of the source. The rule behind the calls is not given here.

Key:
[1] = tested on: Mycobacterium tuberculosis; experiment: Anti-tubercular activity against rifampicin, isoniazid, ethambutol and pyrazinamide-sensitive Mycobacterium tuberculosis H37Ra ATCC 25177 assessed as growth inhibition at 30 ug/ml by XRMA method relative to control; type: functional; conditions: read-out: GI
[2] = tested on: Mycobacterium tuberculosis; experiment: Anti-tubercular activity against rifampicin, isoniazid, ethambutol and pyrazinamide-sensitive Mycobacterium tuberculosis H37Ra ATCC 25177 assessed as growth inhibition at 10 ug/ml by XRMA method relative to control; type: functional; conditions: read-out: GI
[3] = tested on: Mycobacterium tuberculosis; experiment: Anti-tubercular activity against rifampicin, isoniazid, ethambutol and pyrazinamide-sensitive Mycobacterium tuberculosis H37Ra ATCC 25177 assessed as growth inhibition at 3 ug/ml by XRMA method relative to control; type: functional; conditions: read-out: GI
Escherichia coli = experiment: Antibacterial activity against Escherichia coli […] assessed as growth inhibition at 30 ug/ml relative to control; type: functional; conditions: read-out: GI
Pseudomonas fluorescens = experiment: Antibacterial activity against Pseudomonas fluorescens ATCC 13525 assessed as growth inhibition at 30 ug/ml relative to control; type: functional; conditions: for inhibition of growth at 30 µg/mL: read-out: GI
Staphylococcus aureus = experiment: Antibacterial activity against Staphylococcus aureus ATCC 29213 assessed as growth inhibition at 30 ug/ml relative to control; type: functional; conditions: for inhibition of growth at 30 µg/mL: read-out: GI
Bacillus subtilis = experiment: Antibacterial activity against Bacillus subtilis ATCC 23857 assessed as growth inhibition at 30 ug/ml relative to control; type: functional; conditions: for inhibition of growth at 30 µg/mL: read-out: GI
[4] = tested on: Mycobacterium tuberculosis; experiment: Anti-tubercular activity against rifampicin, isoniazid, ethambutol and pyrazinamide-sensitive dormant phage of Mycobacterium tuberculosis H37Ra ATCC 25177 by serial dilution method; type: functional, organism-based
[5] = tested on: Mycobacterium tuberculosis; experiment: Anti-tubercular activity against rifampicin, isoniazid, ethambutol and pyrazinamide-sensitive active phage of Mycobacterium tuberculosis H37Ra ATCC 25177 by serial dilution method; type: functional, organism-based
[6] = tested on: Mycobacterium tuberculosis; experiment: Anti-tubercular activity against rifampicin, isoniazid, ethambutol and pyrazinamide-sensitive dormant phage of Mycobacterium tuberculosis H37Ra ATCC 25177 infected in human THP1 cells by neutral red assay; type: functional, organism-based; conditions: H37Ra ATCC 25177, THP-1
[7] = tested on: Mycobacterium tuberculosis; experiment: Anti-tubercular activity against rifampicin, isoniazid, ethambutol and pyrazinamide-sensitive active phage of Mycobacterium tuberculosis H37Ra ATCC 25177 infected in human THP1 cells by neutral red assay; type: functional, organism-based; conditions: H37Ra ATCC 25177, THP-1
[8] = (§1) Cytotoxicity against human THP1 cells after 48 hrs by MTT assay; type: cell-based, THP-1; conditions: THP-1 cells
THP-1 = experiment: as §1; type: cell-based; conditions: thp-1, 48 h
[9] = Cytotoxicity against human PANC1 cells after 48 hrs by MTT assay; type: cell-based, PANC-1; conditions: for GI50 at 48 h: PANC-1 cells; for GI90: panc-1, 48 h
[10] = (§2) Cytotoxicity against human A549 cells after 48 hrs by MTT assay; type: cell-based; conditions: A549 cells
A549 = experiment: as §2; type: cell-based; conditions: a549, 48 h

Compound	inhibition of growth at 30 µg/mL [1] [%]	inhibition of growth at 10 µg/mL [2] [%]	inhibition of growth at 3 µg/mL [3] [%]	inhibition of growth at 30 µg/mL (Escherichia coli) [%]	inhibition of growth at 30 µg/mL (Pseudomonas fluorescens) [%]	growth inhibition (GI) (Staphylococcus aureus)	growth inhibition (GI) (Bacillus subtilis)	IC50 [4] [µg/mL]	IC90 [4] [µg/mL]	IC50 [5] [µg/mL]	IC90 [5] [µg/mL]	IC50 [6] [µg/mL]	IC90 [6] [µg/mL]	IC50 [7] [µg/mL]	IC90 [7] [µg/mL]	inhibition of growth at 30 µg/mL (Bacillus subtilis) [%]	further results
COC(=O)CC[C@@H](C)[C@H]1CC[C@H]2[C@@H]3[C@H](OC(C)=O)C[C@@H]4C[C@H](OC(C)=O)CC[C@]4(C)[C@H]3CC(=O)[C@]12C	34	28	13														
COC(=O)CC[C@@H](C)[C@H]1CC[C@H]2[C@H]3[C@H]([C@H](NC(=O)[C@H]4CCCN4)C(=O)[C@]12C)[C@@]1(C)CC[C@@H](OC(C)=O)C[C@H]1C[C@H]3OC(C)=O	71	66	55	23.9	20.1	inactive	inactive										
COC(=O)CC[C@@H](C)[C@H]1CC[C@H]2[C@H]3[C@H]([C@H](NC(=O)[C@H]4CCCN4C(=O)OC(C)(C)C)C(=O)[C@]12C)[C@@]1(C)CC[C@@H](OC(C)=O)C[C@H]1C[C@H]3OC(C)=O	94	80	66	26.8	61.5	inactive	inactive	2.25 (≈ 3.14 µM)	27 (≈ 37.7 µM)	3.62 (≈ 5.05 µM)	27.5 (≈ 38.3 µM)	1.32 (≈ 1.84 µM)	23.8 (≈ 33.3 µM)	1.96 (≈ 2.73 µM)	27.3 (≈ 38.1 µM)		GI50 at 48 h [8]: 46 µg/mL (≈ 64.1 µM); GI90 (THP-1): > 100 µg/mL; GI50 at 48 h [9]: 15 µg/mL (≈ 20.9 µM); GI90 [9]: > 100 µg/mL; GI50 at 48 h [10]: 52 µg/mL (≈ 72.5 µM); GI90 (A549): > 100 µg/mL
NNC(=O)c1ccncc1 [ISONIAZID]								0.0023 (≈ 0.0168 µM)	0.075 (≈ 0.547 µM)	0.0019 (≈ 0.0139 µM)	0.074 (≈ 0.54 µM)	0.0024 (≈ 0.0175 µM)	0.0078 (≈ 0.0569 µM)	0.0024 (≈ 0.0175 µM)	0.075 (≈ 0.547 µM)		
COC(=O)CC[C@@H](C)[C@H]1CC[C@H]2[C@H]3[C@H]([C@H](n4cc(-c5ccccc5)nn4)C(=O)[C@]12C)[C@@]1(C)CC[C@@H](OC(C)=O)C[C@H]1C[C@H]3OC(C)=O	74	68	67	17.8		inactive										20	growth inhibition (GI) (Pseudomonas fluorescens): inactive
CCOC(=O)N[C@@H]1C(=O)[C@]2(C)[C@@H]([C@H](C)CCC(=O)OC)CC[C@H]2[C@H]2[C@H]1[C@@]1(C)CC[C@@H](OC(C)=O)C[C@H]1C[C@H]2OC(C)=O	86	73	66	46.7	54.5		inactive										inhibition of growth at 30 µg/mL (Staphylococcus aureus): 17.3%
COC(=O)CC[C@@H](C)[C@H]1CC[C@H]2[C@H]3[C@H]([C@H](NC(C)C)C(=O)[C@]12C)[C@@]1(C)CC[C@@H](OC(C)=O)C[C@H]1C[C@H]3OC(C)=O	84	71	66	31.9	37.2											4.79	inhibition of growth at 30 µg/mL (Staphylococcus aureus): 16.4%
COC(=O)CC[C@@H](C)[C@H]1CC[C@H]2[C@H]3[C@H]([C@H](n4nnc5ccccc54)C(=O)[C@]12C)[C@@]1(C)CC[C@@H](OC(C)=O)C[C@H]1C[C@H]3OC(C)=O	96	94	76	33.8	46.8	inactive		1.27 (≈ 2.04 µM)	7.15 (≈ 11.5 µM)	1.08 (≈ 1.74 µM)	9.79 (≈ 15.7 µM)	1.65 (≈ 2.65 µM)	8.16 (≈ 13.1 µM)	1.11 (≈ 1.79 µM)	8.6 (≈ 13.8 µM)	8.94	GI50 at 48 h [8]: 29.9 µg/mL (≈ 48.1 µM); GI90 (THP-1): > 100 µg/mL; GI50 at 48 h [9]: 50 µg/mL (≈ 80.4 µM); GI90 [9]: > 100 µg/mL; GI50 at 48 h [10]: 20 µg/mL (≈ 32.2 µM); GI90 (A549): > 100 µg/mL
